# From US11504394B2, “Targeted ionophore-based metal delivery” (The Regents of the University of California, priority 2018, dated 2022)
# Columns and labels:
# HepG2 cells [1] = assay: Cell viability, propidium iodide staining, HepG2; type: cell-based; conditions: 500 μM dose, HepG2, three hours
# Procedure: (§1) Flow cytometry experiments were performed with BD LSR Fortessa Cell Analyzer in the College of Chemistry at UC Berkeley. Gains were set to include live cells based on viability experiments using propidium iodide, with dead cells via 0.1% saponin treatment as a negative control. The standard PE-A (570 nm longpass, 586/15 nm bandpass) was used. For each biological replicate, three technical replicates of 5,000 (HepG2) or 10,000 cells (HEK 293T) were counted. Flow cytometry data was processed using FlowJo (FlowJo, LLC).
# (§2) HEK 293T cells were plated in 6-well plates at 60-80% confluency. After ionophore treatment at the given concentration for three hours, cells were washed with DMEM and incubated with 3 μM propidium iodide in PBS for 15 minutes, then rinsed in PBS. HEK 293T cells were mechanically removed via pipetting off the plate with 1 mL PBS and filtered through a 35 μm nylon mesh into 5 mL culture tubes for analysis. HepG2 cells were plated in 12-well plates at 60-80% confluency. […]
# HEK 293T cells = assay: Cell viability, propidium iodide staining, HEK 293T; type: cell-based; conditions: 500 μM dose, three hours
# Procedure: as §1, §2
# HepG2 cells [2] = assay: Confocal imaging with copper sensing CF4 fluorescent probe; type: cell-based; conditions: HepG2, 100 μM Gal-Cu(gtsm) or 2 μM Cu(gtsm), 3 hours
# Procedure: Confocal fluorescence images were acquired with a Zeiss LSM710 laser-scanning microscope with a 20× objective lens. Excitation at 543 nm for CF4 was carried out with appropriate lasers, and emission was acquired from 550 to 650 nm. HepG2 cells were plated between 50-80% confluency in 8-well glass chamber slides with gelatin coating. Cells were incubated with either vehicle, Cu(gtsm), or Gal-Cu(gtsm) for 3 hours in low glucose DMEM. The media was then aspirated and replaced with CF4 or Ctrl-CF4-S2 (2 μM freshly diluted from a 1 mM stock solution) in DPBS with calcium and magnesium, then incubated at 37° C. for 30 minutes. The buffer was then replaced with fresh DPBS (+Ca, +Mg) for imaging. Image analysis and quantification was performed using ImageJ (National Institutes of Health). Mean fluorescence intensity was analyzed with a minimum threshold of 20 pixels and maximum threshold of 255 pixels.
# [3] = Stability in aqueous solutions at different pH (UV-vis); type: physicochemical; conditions: pH=3 to 8
# Procedure: (§3) All spectroscopic measurements were performed in 20 mM PBS, pH 7.4 unless otherwise indicated. Absorption spectra were acquired on a Varian Cary 50 spectrophotometer.
# [4] = Retention of copper in presence of excess Zn^2+ and Fe^2+; type: physicochemical; conditions: 1000-fold excess of Zn^2+ and Fe^2+
# Procedure: as §3
# [5] = test system: alanine transaminase (ALT) activity; assay: Serum alanine transaminase (ALT) assay; type: in vivo, mice; conditions: 6 hours, 0.75 mg Cu/kg
# Procedure: Mice were immediately euthanized by cervical dislocation.
# Liver lysate (TBARS Assay via TCA Method, Cayman Chemical) and serum (BUN Assay, Invitrogen; ALT Assay, Cayman Chemical) samples were processed according to manufacturer instructions; sample concentration was selected based on initial dilution screening to fall within linear range of the standard curve. All samples were analyzed in triplicate.
# MT-I/MT-II = assay: Western blot of liver lysates, MT-I/II; type: in vivo, mouse; conditions: 6 hours and 24 hours
# Procedure: Frozen mouse livers were minced into 50 mg samples on dry ice and homogenized in ice-cold RIPA buffer (25 mM Tris.HCl pH 7.6, 150 mM NaCl, 1% NP-40, 1% sodium deoxycholate, 0.1% SDS) containing protease inhibitor cocktail with EDTA (Roche) at 100 mg/mL using a hand-held mechanical homogenizer. Homogenates were incubated on ice for 30 min and centrifuged at 12,000×g for 20 min at 4° C. The soluble protein lysates were collected from underneath the upper lipid layer with a pipette and transferred to new tubes. Protein concentration was determined using a detergent-compatible Bradford Assay (Pierce).
# Protein lysates were denatured in NuPAGE lithium dodecyl sulfate sample buffer (Invitrogen) containing 10% v/v β-mercaptoethanol as a reducing agent. […] The membranes were washed 5 times for 5 minutes in TBST, then visualized using enhanced chemiluminescence (Western Lighting Plus for visualizing CCS and ATP7B, Perkin Elmer; Western Clarity Max for visualizing CTR1 and MT, Bio-Rad) recorded on a BioRad GelDoc imaging station. β-actin was probed to determine equal loading using anti-β-actin (sc-69879, Santa Cruz Biotechnology) and AlexaFluor 647-conjugated anti-mouse IgG (A31571, Molecular Probes) antibodies at 1:5000 and 1:2500 dilutions, respectively, with visualization using fluorescence recorded on a BioRad GelDoc imaging station.
# [6] = mouse, in vivo
# Procedure: FVB-luc+ mice were heavily anesthetized and blood was collected via cardiac puncture. Mice were immediately euthanized by cervical dislocation. Tissues were harvested, rinsed twice with DPBS, snap-frozen under liquid nitrogen, and placed on dry ice in cryotubes and stored at −80° C. until analysis. Serum was isolated by allowing blood samples to coagulate for 1 hour at room temperature, centrifuging at 1,500 g for 15 minutes at 4° C., then collecting the serum supernatant. Samples were aliquoted, snap-frozen, and stored at −80° C. until analysis.
# 20-100 mg portions of the harvested tissues were digested in concentrated nitric acid (100 mg tissue/mL HNO3, BDH Aristar Ultra) at 95° C. for 2 h in 1.5 mL tubes (Sarstedt) with small holes poked in the caps with an 18G needle. After overnight incubation at room temperature, samples were diluted into freshly prepared 2% nitric acid and doped with a gallium internal standard (Inorganic Ventures, diluted from 1 ppm in 2% nitric acid to a 20 ppb final concentration). The copper content was determined by measuring ^63Cu using a Thermo Fisher iCAP-Qc ICP-MS in Kinetic Energy Discrimination (KED) mode. Measurements were normalized to a standard curve of known copper concentrations doped with 20 ppb Ga. The standard curve was diluted from CMS-5 (Inorganic Ventures).
smiles,measurement,setting,value
CNC1=N[N+]2=CC=[N+]3N=C(NCCOCCOCCOC4OC(CO)C(O)C(O)C4NC(C)=O)[S][Cu-2]23[S]1 (stereo not drawn) [Gal-Cu(gtsm)],ionophore toxicity (cell viability),HepG2 cells [1],non-toxic
same,ionophore toxicity (cell viability),HEK 293T cells,non-toxic
same,CF4 fluorescence,HepG2 cells [2],increased fluorescence
same,stability of complex in aqueous buffers,[3],stable
same,retention of copper in presence of other metal ions,[4],retains copper selectively
same,serum ALT levels compared to vehicle control,[5],virtually the same
same,MT-I/MT-II expression in liver,MT-I/MT-II,increases dramatically
same,hepatic copper delivered relative to Cu(gtsm),[6],ca. 4 times
same,time for hepatic copper stores to clear to basal levels,[6]; ip,72 h
